Some test systems named below: M14; LOX IMVI; SK-MEL-28; T47D; PC-3; IGROV-1; SK-MEL-2; OVCAR-8; HOP-62; HCT-15; UO-31; SNB-75; XF498; SR; HT-29; HCC 2998; SF-539; OVCAR-4; OVCAR-3; 786-0.
Holding throughout (assay): NCI anticancer screen, dose series, 48 h

This note sets out measurements from ChEMBL document CHEMBL1201862, “PubChem BioAssay data set” (2004).

The structures appear in SMILES notation.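 Where inhibition never reached the appropriate level, the endpoint shown equals the highest concentration tested. Otherwise, values were interpolated linearly from a five-concentration, 48-hour dose response in 96-well plates. GI50 is the concentration that inhibits growth by half.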 Activity calls are given as the source filed them. Cut-off read from the data, not from the text of the source: active = GI50 up to about 1.1 µM and inactive = higher.

Regarding `CC[C@@]1(OC(=O)C(N)CCCCN)C(=O)OCc2c1cc1n(c2=O)Cc2cc3ccccc3nc2-1` (stereo not given in full), the GI50 is 20.4 nM (active) with M14; 17.1 nM (active) with LOX IMVI; 442 nM (active) with SK-MEL-28; 32.6 nM (active) in the assay on T47D; 171 nM (active) in the assay with PC-3; 212 nM (active) in the assay on IGROV-1. Moreover, the GI50 with SK-MEL-2 was 500 nM (active); in the assay with OVCAR-8, 50.2 nM (active); in the assay on HOP-62, < 14.8 nM (active); with HCT-15, 248 nM; with UO-31, 26.3 nM (active); in the assay on SNB-75, 33.6 nM (active). In addition, the GI50 with XF498 was 201 nM (active); with SR it was < 10 nM (active); in the assay with HT-29 it was 133 nM (active); in the assay on HCC 2998, 410 nM (active); with SF-539, 20.3 nM (active); with OVCAR-4 it was 332 nM (active). For the same compound, the values for the GI50 with OVCAR-3 and with 786-0 were 352 nM (active) and 14.8 nM (active), respectively.
Consider `COc1ccc(-c2oc3cc(O)c(OC)c(O)c3c(=O)c2O)cc1` [BETULETOL], for which the GI50 in the assay with M14 was 17800 nM (inactive); with LOX IMVI, 6190 nM (inactive); in the assay on SK-MEL-28, 20200 nM (inactive); in the assay with T47D it was 9750 nM (inactive); in the assay on PC-3 it was 9550 nM (inactive); in the assay on IGROV-1, 15100 nM (inactive). Moreover, the GI50 in the assay on SK-MEL-2 is > 51800 nM (inactive); with OVCAR-8, 9950 nM (inactive); with HOP-62 it was 4730 nM (inactive); in the assay on HCT-15, 4840 nM; in the assay on UO-31, 6460 nM (inactive); in the assay on SNB-75, 10400 nM (inactive). The GI50 was 24900 nM (inactive) in the assay with XF498; 3080 nM (inactive) in the assay with SR; 17100 nM (inactive) in the assay with HT-29; 19300 nM (inactive) in the assay on HCC 2998; 8320 nM (inactive) in the assay on SF-539; 30200 nM (inactive) in the assay on OVCAR-4. Also, the GI50 in the assay with OVCAR-3 was 9380 nM (inactive); in the assay on 786-0 it was 6080 nM (inactive).
With `Nc1ccn([C@@H]2C=C(CO)[C@@H](O)[C@H]2O)c(=O)n1`, the GI50 in the assay with M14 is 186 nM (active); in the assay on LOX IMVI, 66.7 nM (active); with SK-MEL-28, 298 nM (active); in the assay with T47D it was 483 nM (active); in the assay on PC-3 it was 55.5 nM (active); in the assay with IGROV-1 it was 108 nM (active). Further, the GI50 was 10000 nM (inactive) in the assay with SK-MEL-2; 81.7 nM (active) in the assay on OVCAR-8; 102 nM (active) in the assay on HOP-62; 91.6 nM in the assay with HCT-15; 105 nM (active) in the assay on UO-31; 2070 nM (inactive) in the assay on SNB-75. In addition, the GI50 was 6220 nM (inactive) with XF498; 9.46 nM (active) in the assay on SR; 110 nM (active) in the assay with HT-29; 1290 nM (inactive) with HCC 2998; 254 nM (active) in the assay with SF-539; 216 nM (active) with OVCAR-4. The GI50 in the assay on OVCAR-3 was 2200 nM (inactive); in the assay with 786-0, 103 nM (active).
